Measured values as given in BindingDB's records for doi:10.1021/jm021089h (Institute of Biomedical Chemistry of Russian Academy of …, 2003).
pIC50: −log10 of the molar value.

Biological target: Angiotensin-converting enzyme (Bos taurus) (UniProt P12820)
Assay: Inhibitory activity against Angiotensin I converting enzyme (ACE) from bovine kidney

Angiotensin-converting enzyme (Bos taurus), sequence (P12820 whole entry, looked up): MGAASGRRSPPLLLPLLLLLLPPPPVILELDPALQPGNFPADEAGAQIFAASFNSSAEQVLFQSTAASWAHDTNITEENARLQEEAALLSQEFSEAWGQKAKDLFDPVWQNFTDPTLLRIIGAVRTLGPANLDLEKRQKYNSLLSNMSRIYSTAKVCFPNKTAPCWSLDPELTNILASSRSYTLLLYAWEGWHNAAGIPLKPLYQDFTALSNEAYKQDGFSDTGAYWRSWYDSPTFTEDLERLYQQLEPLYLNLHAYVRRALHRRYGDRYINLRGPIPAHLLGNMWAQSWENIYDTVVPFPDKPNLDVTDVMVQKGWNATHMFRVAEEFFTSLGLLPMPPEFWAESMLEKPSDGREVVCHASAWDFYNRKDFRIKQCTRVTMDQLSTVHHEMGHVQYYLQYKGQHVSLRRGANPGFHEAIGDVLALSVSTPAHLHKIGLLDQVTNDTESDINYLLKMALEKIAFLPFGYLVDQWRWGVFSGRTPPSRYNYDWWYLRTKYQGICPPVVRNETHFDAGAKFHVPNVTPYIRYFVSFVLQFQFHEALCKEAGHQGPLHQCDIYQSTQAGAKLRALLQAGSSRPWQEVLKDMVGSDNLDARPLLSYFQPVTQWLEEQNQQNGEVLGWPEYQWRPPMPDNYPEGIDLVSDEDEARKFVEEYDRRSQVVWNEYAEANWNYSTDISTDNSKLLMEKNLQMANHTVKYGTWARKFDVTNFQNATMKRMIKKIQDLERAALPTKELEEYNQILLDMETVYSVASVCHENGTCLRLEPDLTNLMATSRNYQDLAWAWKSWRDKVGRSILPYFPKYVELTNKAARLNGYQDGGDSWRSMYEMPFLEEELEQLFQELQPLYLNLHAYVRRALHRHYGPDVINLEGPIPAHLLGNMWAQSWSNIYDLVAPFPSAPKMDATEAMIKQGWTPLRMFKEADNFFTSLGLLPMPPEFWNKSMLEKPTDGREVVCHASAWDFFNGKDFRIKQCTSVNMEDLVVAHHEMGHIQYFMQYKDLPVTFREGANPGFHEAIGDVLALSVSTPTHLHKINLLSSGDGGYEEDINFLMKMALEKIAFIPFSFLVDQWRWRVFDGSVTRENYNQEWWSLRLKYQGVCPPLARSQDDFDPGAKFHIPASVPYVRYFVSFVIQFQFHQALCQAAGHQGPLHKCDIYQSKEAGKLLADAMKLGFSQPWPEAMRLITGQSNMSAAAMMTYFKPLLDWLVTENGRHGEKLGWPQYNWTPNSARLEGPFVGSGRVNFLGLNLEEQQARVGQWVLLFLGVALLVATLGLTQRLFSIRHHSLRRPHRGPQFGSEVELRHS

| Compound | pIC50 |
| --- | --- |
| CC1CCCC(C(=O)O)N1C(=O)CCS (stereo not drawn) [1-(3-Mercapto-propionyl)-6-methyl-piperidine-2-carboxylic acid] | 9.00 |
| CC(=O)SCC(C)C(=O)NCc1ccccc1 (stereo not drawn) [Thioacetic acid S-(2-benzylcarbamoyl-propyl) ester] | 3.30 |
| CC(=O)SCC(C)C(=O)Nc1ccccc1 (stereo not drawn) [Thioacetic acid S-(2-phenylcarbamoyl-propyl) ester] | 6.52 |
